# From ChEMBL document CHEMBL1125402, “Conformational effects on the activity of drugs. 13. A revision of previously proposed models for the activation of alpha- and beta-adrenergic receptors” (J Med Chem, 1992)
# Key:
# [1] = target: Beta-2 adrenergic receptor (Cavia porcellus) (UniProt Q8K4Z4)
# [2] = target: T1, Adrenergic receptor alpha-1 (Rattus norvegicus) (UniProt P15823+P23944+P43140); assay: (§1) Compound was evaluated for alpha adrenoceptor agonistic activity towards Alpha-1 adrenergic receptor of isolated rat vas deferens; type: functional, tissue-based
# [3] = target: T1, Adrenergic receptor alpha-1 (Rattus norvegicus); conditions: Vas deferens
# [4] = target: Beta-1 adrenergic receptor (Cavia porcellus) (UniProt B0FL73)
# Chain of Beta-1 adrenergic receptor (Cavia porcellus) (B0FL73 1-467): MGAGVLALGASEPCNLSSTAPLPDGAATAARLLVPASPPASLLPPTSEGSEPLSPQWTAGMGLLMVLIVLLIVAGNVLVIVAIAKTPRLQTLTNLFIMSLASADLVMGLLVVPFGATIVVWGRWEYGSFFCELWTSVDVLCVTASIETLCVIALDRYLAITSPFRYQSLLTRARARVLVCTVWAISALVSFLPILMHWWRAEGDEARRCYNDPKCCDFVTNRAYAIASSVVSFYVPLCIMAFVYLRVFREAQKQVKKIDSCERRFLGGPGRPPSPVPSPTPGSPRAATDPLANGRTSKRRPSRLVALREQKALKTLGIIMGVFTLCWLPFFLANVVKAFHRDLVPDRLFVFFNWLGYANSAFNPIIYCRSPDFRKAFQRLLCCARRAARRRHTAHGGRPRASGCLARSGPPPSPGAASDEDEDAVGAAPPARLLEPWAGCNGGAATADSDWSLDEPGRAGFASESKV
# [5] = target: Beta-2 adrenergic receptor (Bos taurus, UniProt Q28044); assay: Compound was evaluated for beta adrenergic binding affinity towards beta-2 receptor of bovine lung
# Chain of Beta-2 adrenergic receptor (Q28044 whole entry): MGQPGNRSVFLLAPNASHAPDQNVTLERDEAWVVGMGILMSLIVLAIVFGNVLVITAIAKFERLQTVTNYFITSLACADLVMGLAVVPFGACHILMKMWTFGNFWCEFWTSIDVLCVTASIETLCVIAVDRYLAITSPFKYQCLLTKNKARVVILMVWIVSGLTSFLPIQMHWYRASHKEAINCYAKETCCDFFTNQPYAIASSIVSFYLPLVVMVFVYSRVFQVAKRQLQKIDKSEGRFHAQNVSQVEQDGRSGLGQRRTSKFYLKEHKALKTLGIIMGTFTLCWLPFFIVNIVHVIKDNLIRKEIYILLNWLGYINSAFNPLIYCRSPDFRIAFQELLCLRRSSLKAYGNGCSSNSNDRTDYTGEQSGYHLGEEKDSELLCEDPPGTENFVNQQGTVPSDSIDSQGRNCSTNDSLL
# [6] = target: Adrenergic receptor alpha-2 (Homo sapiens) (UniProt P08913+P18825+P18089); conditions: Cavia porcellus; Ileum
# Description: Intrinsic activity was expressed as the ratio between maximal response elicited by compound and that elicited by full agonist NE towards Alpha-2 adrenergic receptor of isolated guinea pig ileum
# [7] = target: T1, Adrenergic receptor alpha-1 (Rattus norvegicus); assay: Compound was evaluated for alpha adrenoceptor agonistic activity towards Alpha-1 adrenergic receptor of isolated rat vas deferens (exp 2); type: functional, tissue-based
# [8] = target: T2, Adrenergic receptor alpha-1 (Rattus norvegicus, UniProt P15823+P23944+P43140); assay: Binding affinity towards Alpha-1 adrenergic receptor of rat brain
# T2 sequence (P15823 whole entry): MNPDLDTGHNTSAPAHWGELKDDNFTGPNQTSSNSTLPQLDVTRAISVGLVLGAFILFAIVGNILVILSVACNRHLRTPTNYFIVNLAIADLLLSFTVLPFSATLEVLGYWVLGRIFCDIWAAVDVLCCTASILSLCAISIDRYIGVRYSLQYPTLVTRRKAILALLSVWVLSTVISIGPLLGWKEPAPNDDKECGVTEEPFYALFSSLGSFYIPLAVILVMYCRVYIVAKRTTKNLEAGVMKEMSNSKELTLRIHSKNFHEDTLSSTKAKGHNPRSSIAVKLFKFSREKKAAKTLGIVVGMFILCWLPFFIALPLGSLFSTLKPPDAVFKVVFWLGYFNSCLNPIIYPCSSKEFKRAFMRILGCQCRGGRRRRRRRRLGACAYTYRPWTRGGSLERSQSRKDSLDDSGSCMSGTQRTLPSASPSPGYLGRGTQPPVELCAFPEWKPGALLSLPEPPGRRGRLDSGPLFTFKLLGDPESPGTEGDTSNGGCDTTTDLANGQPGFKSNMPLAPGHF
# T2 sequence (P23944 whole entry): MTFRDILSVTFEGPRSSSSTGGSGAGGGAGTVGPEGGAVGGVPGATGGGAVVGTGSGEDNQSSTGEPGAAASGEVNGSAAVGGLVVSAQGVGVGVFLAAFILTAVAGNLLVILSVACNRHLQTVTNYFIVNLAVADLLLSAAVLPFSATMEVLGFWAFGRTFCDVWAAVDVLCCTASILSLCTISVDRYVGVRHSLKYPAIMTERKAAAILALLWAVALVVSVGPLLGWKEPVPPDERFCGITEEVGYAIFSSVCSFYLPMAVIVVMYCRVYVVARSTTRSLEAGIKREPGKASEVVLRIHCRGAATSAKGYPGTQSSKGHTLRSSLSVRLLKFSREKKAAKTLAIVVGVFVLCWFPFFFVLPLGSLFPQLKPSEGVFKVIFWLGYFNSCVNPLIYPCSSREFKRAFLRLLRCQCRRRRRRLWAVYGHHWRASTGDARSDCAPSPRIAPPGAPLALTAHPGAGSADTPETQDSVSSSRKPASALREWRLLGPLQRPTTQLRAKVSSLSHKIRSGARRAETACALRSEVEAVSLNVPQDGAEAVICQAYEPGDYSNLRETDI
# T2 sequence (P43140 whole entry): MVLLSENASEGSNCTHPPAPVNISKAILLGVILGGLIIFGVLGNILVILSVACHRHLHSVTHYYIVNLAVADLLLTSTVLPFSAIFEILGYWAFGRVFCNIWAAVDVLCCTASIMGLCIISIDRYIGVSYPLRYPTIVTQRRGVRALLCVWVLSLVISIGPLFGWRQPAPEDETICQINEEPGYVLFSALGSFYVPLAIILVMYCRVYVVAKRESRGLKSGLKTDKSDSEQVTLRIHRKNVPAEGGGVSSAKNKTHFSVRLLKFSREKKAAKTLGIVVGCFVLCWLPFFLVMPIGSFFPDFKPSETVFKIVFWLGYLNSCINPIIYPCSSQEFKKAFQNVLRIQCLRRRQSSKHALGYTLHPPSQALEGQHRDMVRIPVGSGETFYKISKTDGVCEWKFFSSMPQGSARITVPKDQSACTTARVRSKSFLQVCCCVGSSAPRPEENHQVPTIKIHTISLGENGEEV
# [9] = target: T3, Adrenergic receptor alpha-2 (Rattus norvegicus, UniProt P22086+P19328+P22909); assay: Compound was evaluated for alpha adrenergic binding affinity towards Alpha-2 adrenergic receptor of rat brain
# T3 sequence (P22086 whole entry): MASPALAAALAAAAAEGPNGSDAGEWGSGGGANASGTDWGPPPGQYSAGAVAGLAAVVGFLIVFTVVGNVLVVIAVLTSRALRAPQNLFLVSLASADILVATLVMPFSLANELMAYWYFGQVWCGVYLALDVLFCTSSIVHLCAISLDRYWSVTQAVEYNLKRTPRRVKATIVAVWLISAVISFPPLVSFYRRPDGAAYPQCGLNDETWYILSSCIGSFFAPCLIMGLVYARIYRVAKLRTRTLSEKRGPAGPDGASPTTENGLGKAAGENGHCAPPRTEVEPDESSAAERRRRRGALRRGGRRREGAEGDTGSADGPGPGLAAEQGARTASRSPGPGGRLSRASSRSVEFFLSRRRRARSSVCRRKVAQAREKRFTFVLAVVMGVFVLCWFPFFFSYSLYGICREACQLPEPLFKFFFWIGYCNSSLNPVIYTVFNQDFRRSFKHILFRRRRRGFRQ
# T3 sequence (P19328 whole entry): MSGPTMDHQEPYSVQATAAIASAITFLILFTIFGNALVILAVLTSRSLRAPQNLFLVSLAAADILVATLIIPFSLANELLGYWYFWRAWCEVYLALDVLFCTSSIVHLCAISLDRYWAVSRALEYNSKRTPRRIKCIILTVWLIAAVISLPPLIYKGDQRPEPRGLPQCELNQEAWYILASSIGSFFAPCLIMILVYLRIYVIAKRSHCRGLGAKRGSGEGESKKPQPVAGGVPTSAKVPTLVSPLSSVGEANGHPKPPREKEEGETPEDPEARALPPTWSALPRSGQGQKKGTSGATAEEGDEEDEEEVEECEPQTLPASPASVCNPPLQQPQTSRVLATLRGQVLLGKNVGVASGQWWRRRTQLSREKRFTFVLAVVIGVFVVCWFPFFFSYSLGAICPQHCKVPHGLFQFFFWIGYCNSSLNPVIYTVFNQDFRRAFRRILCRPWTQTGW
# T3 sequence (P22909 whole entry): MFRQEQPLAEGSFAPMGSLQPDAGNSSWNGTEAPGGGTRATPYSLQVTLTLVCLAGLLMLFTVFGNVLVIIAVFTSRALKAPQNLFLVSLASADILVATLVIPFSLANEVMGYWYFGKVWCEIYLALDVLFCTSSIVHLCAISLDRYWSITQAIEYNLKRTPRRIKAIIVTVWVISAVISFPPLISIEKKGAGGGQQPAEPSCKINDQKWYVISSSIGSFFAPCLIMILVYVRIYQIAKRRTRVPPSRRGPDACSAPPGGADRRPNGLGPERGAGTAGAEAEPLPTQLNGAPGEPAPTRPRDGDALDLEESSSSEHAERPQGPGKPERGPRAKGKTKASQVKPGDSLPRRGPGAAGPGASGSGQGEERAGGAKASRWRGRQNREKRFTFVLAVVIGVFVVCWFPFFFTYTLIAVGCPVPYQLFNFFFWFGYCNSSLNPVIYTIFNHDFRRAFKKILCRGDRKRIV
# [10] = target: T1, Adrenergic receptor alpha-1 (Rattus norvegicus); assay: Compound was evaluated for alpha adrenoceptor agonistic activity towards alpha 1 receptor of isolated rat vas deferens (exp 1); type: functional, tissue-based
# [11] = target: T4, Beta-1 adrenergic receptor (Rattus norvegicus, UniProt P18090)
# T4 sequence (P18090 whole entry): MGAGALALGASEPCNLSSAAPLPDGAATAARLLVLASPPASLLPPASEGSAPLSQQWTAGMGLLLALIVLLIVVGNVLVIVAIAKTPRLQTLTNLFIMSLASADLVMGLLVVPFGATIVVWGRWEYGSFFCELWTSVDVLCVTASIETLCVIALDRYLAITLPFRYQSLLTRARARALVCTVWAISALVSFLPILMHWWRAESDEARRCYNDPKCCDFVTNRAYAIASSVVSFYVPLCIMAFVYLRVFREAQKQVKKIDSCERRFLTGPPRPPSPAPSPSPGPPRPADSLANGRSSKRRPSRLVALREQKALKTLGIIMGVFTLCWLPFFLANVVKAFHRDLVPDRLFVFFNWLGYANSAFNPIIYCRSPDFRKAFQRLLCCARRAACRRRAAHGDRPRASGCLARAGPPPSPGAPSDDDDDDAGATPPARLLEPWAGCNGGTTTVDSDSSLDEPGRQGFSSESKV
# Description: Compound was evaluated for beta adrenergic binding affinity towards Beta-1 adrenergic receptor of rat brain
# [12] = target: Beta-1 adrenergic receptor (Cavia porcellus) (UniProt B0FL73); assay: Compound was evaluated for beta adrenergic […]
# [13] = target: Beta-2 adrenergic receptor (Cavia porcellus) (UniProt Q8K4Z4); assay: Intrinsic activity was expressed as the ratio between maximal response elicited by compound and that elicited by full agonist ISO towards Beta-2 adrenergic receptor of isolated guinea pig tracheal strip (exp 1); type: functional
# [14] = target: Beta-1 adrenergic receptor (Cavia porcellus) (UniProt B0FL73); assay: Compound was evaluated for beta adrenoceptor agonistic activity towards Beta-1 adrenergic receptor of isolated guinea pig atria (exp 1); type: functional
# [15] = target: Beta-1 adrenergic receptor (Cavia porcellus) (UniProt B0FL73); assay: Intrinsic activity was expressed as the ratio between maximal response elicited by compound and that elicited by full agonist ISO towards Beta-1 adrenergic receptor of isolated guinea pig atria (exp 1); type: functional
# [16] = target: T4, Beta-1 adrenergic receptor; assay: Compound was evaluated for beta adrenergic binding affinity towards beta-1 receptor of rat brain
# [17] = target: Beta-2 adrenergic receptor (Cavia porcellus) (UniProt Q8K4Z4); assay: Intrinsic activity was expressed as the ratio between maximal response elicited by compound and that elicited by full agonist ISO towards beta 2 receptor of isolated guinea pig tracheal strip (exp 1); type: functional
# [18] = target: Beta-1 adrenergic receptor (Cavia porcellus) (UniProt B0FL73); assay: Compound was evaluated for beta adrenoceptor agonistic activity towards beta 1 receptor of isolated guinea pig atria (exp 2); type: functional
# [19] = target: Beta-2 adrenergic receptor (Cavia porcellus) (UniProt Q8K4Z4); assay: Intrinsic activity was expressed as the ratio between maximal response elicited by compound and that elicited by full agonist ISO towards beta 2 receptor of isolated guinea pig tracheal strip (exp 2); type: functional
# [20] = target: Beta-2 adrenergic receptor (Cavia porcellus) (UniProt Q8K4Z4); remark: listed apart in the source
# Description: Compound was evaluated for beta adrenoceptor agonistic activity towards Beta-2 adrenergic receptor of isolated guinea pig tracheal strip (exp 2)
# [21] = target: T1, Adrenergic receptor alpha-1 (Rattus norvegicus); assay: Compound was evaluated for alpha adrenoceptor agonistic activity towards alpha 1 receptor of isolated rat vas deferens; type: functional, tissue-based
# [22] = target: Beta-1 adrenergic receptor (Cavia porcellus) (UniProt B0FL73); assay: Compound was evaluated for beta adrenoceptor agonistic activity towards Beta-1 adrenergic receptor of isolated guinea pig atria (exp 2); type: functional
# [23] = target: T1, Adrenergic receptor alpha-1 (Rattus norvegicus); assay: Compound was evaluated for alpha adrenoceptor agonistic activity towards Alpha-1 adrenergic receptor of isolated rabbit aortic strips (exp 2); type: functional
# [24] = target: Adrenergic receptor alpha-1 (Homo sapiens) (UniProt P35348+P25100+P35368); assay: as §1; type: functional, tissue-based; conditions: Oryctolagus cuniculus
# [25] = target: Beta-2 adrenergic receptor (Cavia porcellus) (UniProt Q8K4Z4); assay: Compound was evaluated for beta adrenoceptor agonistic activity towards Beta-2 adrenergic receptor of isolated guinea pig tracheal strip (exp 1 2); type: functional
# [26] = target: Beta-1 adrenergic receptor (Cavia porcellus) (UniProt B0FL73); assay: Compound was evaluated for beta adrenoceptor agonistic activity towards beta 1 receptor of isolated guinea pig atria (exp 1); type: functional
# [27] = target: Beta-2 adrenergic receptor (Cavia porcellus) (UniProt Q8K4Z4); assay: Compound was evaluated for beta adrenoceptor agonistic activity towards beta 2 receptor of isolated guinea pig tracheal strip (exp 1 2); type: functional
# [28] = target: T1, Adrenergic receptor alpha-1 (Rattus norvegicus); assay: Intrinsic activity was expressed as the ratio between maximal response elicited by compound and that elicited by full agonist NE towards Alpha-1 adrenergic receptor of isolated rat vas deferens; ND=No data; type: functional
# Chain of Beta-2 adrenergic receptor (Cavia porcellus) (Q8K4Z4 whole entry, looked up): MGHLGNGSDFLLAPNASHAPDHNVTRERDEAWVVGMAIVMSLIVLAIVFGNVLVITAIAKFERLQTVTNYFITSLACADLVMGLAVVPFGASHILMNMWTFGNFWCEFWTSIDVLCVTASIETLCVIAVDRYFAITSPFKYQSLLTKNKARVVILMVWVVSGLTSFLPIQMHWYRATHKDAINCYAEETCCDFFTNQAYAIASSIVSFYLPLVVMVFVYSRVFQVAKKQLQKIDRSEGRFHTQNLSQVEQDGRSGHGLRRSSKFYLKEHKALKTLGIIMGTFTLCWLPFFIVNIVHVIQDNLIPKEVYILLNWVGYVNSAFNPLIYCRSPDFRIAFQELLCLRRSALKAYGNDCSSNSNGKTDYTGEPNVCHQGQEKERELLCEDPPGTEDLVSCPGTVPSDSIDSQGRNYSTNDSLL
Structure (SMILES),pD2 [1],pD2 [4],Ki [5],pD2 [6],Ki [8],Ki [9],Ki [11],also measured
NC[C@H](O)c1ccc(O)c(O)c1 [NOREPINEPHRINE],6.03,6.32,6 µM,6.56,–,–,–,Intrinsic activity [2]: 1; pD2 [3]: 5.12
Oc1ccc(C2(O)CCCNC2)cc1O (centres undefined),4.44,3.81,> 100 µM,5.56,15 µM,0.5 µM,> 100 µM,Intrinsic activity [7]: 0.95; pD2 [10]: 4.76
CC(C)N1CCOC(c2ccc(O)c(O)c2)C1 (centres undefined),–,–,36 µM,5,6.7 µM,5.1 µM,–,pD2 [12]: 4.62; pD2 [13]: 5.91; Intrinsic activity [14]: 0.77; Intrinsic activity [15]: 0.88; Ki [16]: 48 µM; Intrinsic activity [17]: 0.87; pD2 [18]: 5.74; Intrinsic activity [19]: 0.93; pD2 [20]: 6.34
N[C@@H]1CCc2c(ccc(O)c2O)[C@H]1O,–,–,0.12 µM,5.32,> 100 µM,2.9 µM,8 µM,pD2 [21]: 3.7; Intrinsic activity [22]: 1; Intrinsic activity [23]: 0.87; pD2 [24]: < 3.5; pD2 [25]: 7.78; pD2 [26]: 4.96; pD2 [14]: 6.74; pD2 [27]: 7.49
CC(C)NC1CCc2cc(O)c(O)cc2[C@H]1O (some centres undefined),6.17,4.44,> 100 µM,5.72,1.2 µM,1.57 µM,> 100 µM,pD2 [28]: < 3.5
